Measurements from patent US10017463B2, “Inhibitors of deubiquitinating proteases” (Brandeis University, priority 2014, dated 2018).
Read-outs that look alike come from different tables or passages of the source. One block for each compound: values may come before it.

How the values were obtained:
cathepsin C = biological target: T1, cathepsin C (Mus musculus, UniProt P97821); assay: Cathepsin C inhibition (Gly-Phe-AMC); format: biochemical; settings: for EC50 for cathepsin C inhibition: 30 min preincubation, substrate 150 μM
T1 construct: Mouse full length cathepsin C was from RnD systems; purchased RnD systems (Minneapolis, Minn.)
Procedure: Panel A is a plot showing the KM calculation for cathepsin C and substrate, Gly-Phe-AMC. Panel B is a plot showing Cathepsin C was incubated with the stated compound for 30 min prior to addition of substrate and residual activity was measured. Panel C is a plot showing the EC50 values calculated from Panel B.
Cathepsin C is an enzyme important in inflammation. […] The assay was undertaken by incubating the enzyme in the presence of compound for 30 min, then adding substrate (150 μM; kM=75 μM) and measuring residual activity. […] TCM41, TCM42, TCM58, TCM43, and TCM97 (FIG. 12). […] Furthermore, substitution in the 3-position of the aniline function appeared to be more favored than 4-substitution (TCM97 vs TCM41). However substitution on the phenyl ester function was much less important for inhibition, with chloro, fluoro and proton all giving similar inhibition potencies.

G76VUb-GFP in COS1 cells = assay: UbG76V-GFP proteasome assay in COS1 cells; format: cell-based; settings: COS1, 8 h
Procedure: COS1 cells at approx. 75% confluence in a 48 well plate were transiently transfected with a plasmid encoding G76VUb-GFP using Mirus 2020 reagent. After this time media with either compound in DMSO or 1% DMSO was added to the cells and the cells were incubated for 8 h. After this time, cells were trypsinized, diluted with 1% FBS in PBS (FACS buffer) then centrifuged at 700 g. After this time cells on ice were treated with FACS buffer containing propidium iodide (0.05 mg/mL). The GFP (indicating proteasome activity) and red fluorescence (dye exclusion showing acute toxicity) were subsequently measured by FACS.

USP9x = biological target: T2, USP9x (Homo sapiens, UniProt Q93008); assay: HA-Ubiquitin-Vinylsulfone activity profiling in K562 lysates; format: biochemical
T2 construct: Lysate labeling assay on untransfected cells; endogenous in cells; host or cells: K562
Procedure: Panel B is an image of an immunoblot showing the titration of TCM23 and TCM28 in K562 lysates. Panel C is a plot showing the quantitation of band corresponding to USP9x in panel B. Panel D is an image of an immunoblot showing the titration of WP1130 in K562 lysates. Panel E is a plot showing the quantification of the efficacy of ITCs for the inhibition of USP9x in K562 lysates (see also Table 2).
[…] After this time HA-Ub-VS (1.5 μM) was added and incubated for 15 min. After this time reaction mixture (15 μL) was removed and quenched in 2× (final concentration) reducing Laemeli buffer. The reaction mixtures were heated to 37° C. for 10 min prior to analysis by western blot for HA.

MCF7 = assay: Proliferation assay, MCF7; settings: read-out: EC50 MCF7
Procedure: (§2) Proliferation assays for adherent cells were conducted by plating cells at 5%-10% confluence in 96 well plates together with compound or 0.1% DMSO. Cells were allowed to grow for 48 h and then Alamar Blue® was added and number of cells was measured by fluorescence on a microplate reader.

3T3 = assay: Proliferation assay, 3T3; settings: read-out: EC50 3T3; WP1130, time not stated
B16-F10 = assay: Proliferation assay, B16-F10; settings: read-out: EC50 B16-F10; WP1130, time not stated
HeLa = assay: Proliferation assay, HeLa; settings: read-out: EC50 HeLa
Procedure: as §2

[1] = test system: DUBs other than USP9x, most notably UCHL5; assay: HA-Ubiquitin-Vinylsulfone activity profiling, other DUBs; format: biochemical
Procedure: Lysate labeling assay on untransfected cells (1.5 mg/mL lysate lysed using a Dounce homogenizer, 10 strokes, in 75 mM potassium phosphate pH 7.6, 150 mM NaCl, 0.75 mM BME) was run with the stated concentration of inhibitor (or 1% DMSO control) for 30 min. After this time HA-Ub-VS (1.5 μM) was added and incubated for 15 min. After this time reaction mixture (15 μL) was removed and quenched in 2× (final concentration) reducing Laemeli buffer. The reaction mixtures were heated to 37° C. for 10 min prior to analysis by western blot for HA. […] EC50s calculated by this method were in agreement with those found in the HA-blot.

DUBs = assay: Cy5-Ub-VME activity profiling of treated BaF3/p210 cells; format: cell-based, murine; settings: TU71 for 2.5 h or 4 h
Procedure: FIG. 9 has two panels (A and B) depicting data showing that TUs inhibit DUBs in cells. BaF3/p210 cells were incubated with the stated concentration of compound for 4 h. After this time cells were lysed using beads, lysates were normalized, then exposed to Cy5-Ub-VME for 5 min. After quenching, lysates were resolved by SDS-PAGE, analyzed on typhoon, then stained by Coomassie. Panel A is an image of the SDS-PAGE gel visualized via Typhoon imager. Panel B is an image of the SDS PAGE gel stained with Coomassie.
(§1) Panel A is the chemical structure of TU71. Panel B is an image of an immunoblot showing a K562 cell was treated with TU71 for 15 min at which time HAUb-VS was added. After an additional 15 min, aliquots were quenched in reducing loading buffer and analyzed by SDS-PAGE and HA blot. […] BaF3/p21 0 cells were treated with TU71 for 2.5 h (Panel C) or 4 h (Panel D). Cells were harvested, lysed and incubated (0.7 mg/mL protein) with 250 nM Cy5-UbVME for 5 min at 37° C. […] Panel E is an image of an immunoblot showing BaF3/p210 cells were incubated with TU71 for 4 h. The cells were harvested, lysed, analyzed by SDS-PAGE and immunoblotted as indicated. “cPARP” indicates the caspase cleavage of product of PARP and is indicative of apoptosis. Panel F is a bar graph showing data representative of mean±range of two independent experiments, one performed in duplicate of the blot depicted in Panel E.
The increased promiscuity of the inhibitors when the experiment is carried out in cells likely stems from the increased assay time (4 h vs 20 min) coupled with the slow on rates of the inhibitors and their targets.

MCL-1 = MCL-1 immunoblot in BaF3/p210 cells; format: cell-based, murine; settings: 4 h
Procedure: as §1

BaF3/p210 cells [2] = assay: Apoptosis (cPARP) in BaF3/p210 cells; format: cell-based, murine; settings: 4 h
Procedure: as §1

BaF3/p210 cells [3] = assay: Proliferation assay (Alamar Blue), BaF3/p210; format: cell-based, murine
Text: This cell line consists of engineered murine leukemia cells that ectopically express Bcr-Abl. Parent BaF3 cells require exogenous interleukin 3 (IL3) because IL3 stimulates expression of MCL1, which is required for survival. However, BaF3/p210 cells require no exogenous interleukins but need Bcr-Abl for survival.

[4] = inhibition of USP9x in K562 lysates, data from FIG. 1, read-out: EC50
[5] = HA-Ub-VS profiling, values in text, read-out: EC50 for USP9x

T2 sequence (Q93008 whole entry): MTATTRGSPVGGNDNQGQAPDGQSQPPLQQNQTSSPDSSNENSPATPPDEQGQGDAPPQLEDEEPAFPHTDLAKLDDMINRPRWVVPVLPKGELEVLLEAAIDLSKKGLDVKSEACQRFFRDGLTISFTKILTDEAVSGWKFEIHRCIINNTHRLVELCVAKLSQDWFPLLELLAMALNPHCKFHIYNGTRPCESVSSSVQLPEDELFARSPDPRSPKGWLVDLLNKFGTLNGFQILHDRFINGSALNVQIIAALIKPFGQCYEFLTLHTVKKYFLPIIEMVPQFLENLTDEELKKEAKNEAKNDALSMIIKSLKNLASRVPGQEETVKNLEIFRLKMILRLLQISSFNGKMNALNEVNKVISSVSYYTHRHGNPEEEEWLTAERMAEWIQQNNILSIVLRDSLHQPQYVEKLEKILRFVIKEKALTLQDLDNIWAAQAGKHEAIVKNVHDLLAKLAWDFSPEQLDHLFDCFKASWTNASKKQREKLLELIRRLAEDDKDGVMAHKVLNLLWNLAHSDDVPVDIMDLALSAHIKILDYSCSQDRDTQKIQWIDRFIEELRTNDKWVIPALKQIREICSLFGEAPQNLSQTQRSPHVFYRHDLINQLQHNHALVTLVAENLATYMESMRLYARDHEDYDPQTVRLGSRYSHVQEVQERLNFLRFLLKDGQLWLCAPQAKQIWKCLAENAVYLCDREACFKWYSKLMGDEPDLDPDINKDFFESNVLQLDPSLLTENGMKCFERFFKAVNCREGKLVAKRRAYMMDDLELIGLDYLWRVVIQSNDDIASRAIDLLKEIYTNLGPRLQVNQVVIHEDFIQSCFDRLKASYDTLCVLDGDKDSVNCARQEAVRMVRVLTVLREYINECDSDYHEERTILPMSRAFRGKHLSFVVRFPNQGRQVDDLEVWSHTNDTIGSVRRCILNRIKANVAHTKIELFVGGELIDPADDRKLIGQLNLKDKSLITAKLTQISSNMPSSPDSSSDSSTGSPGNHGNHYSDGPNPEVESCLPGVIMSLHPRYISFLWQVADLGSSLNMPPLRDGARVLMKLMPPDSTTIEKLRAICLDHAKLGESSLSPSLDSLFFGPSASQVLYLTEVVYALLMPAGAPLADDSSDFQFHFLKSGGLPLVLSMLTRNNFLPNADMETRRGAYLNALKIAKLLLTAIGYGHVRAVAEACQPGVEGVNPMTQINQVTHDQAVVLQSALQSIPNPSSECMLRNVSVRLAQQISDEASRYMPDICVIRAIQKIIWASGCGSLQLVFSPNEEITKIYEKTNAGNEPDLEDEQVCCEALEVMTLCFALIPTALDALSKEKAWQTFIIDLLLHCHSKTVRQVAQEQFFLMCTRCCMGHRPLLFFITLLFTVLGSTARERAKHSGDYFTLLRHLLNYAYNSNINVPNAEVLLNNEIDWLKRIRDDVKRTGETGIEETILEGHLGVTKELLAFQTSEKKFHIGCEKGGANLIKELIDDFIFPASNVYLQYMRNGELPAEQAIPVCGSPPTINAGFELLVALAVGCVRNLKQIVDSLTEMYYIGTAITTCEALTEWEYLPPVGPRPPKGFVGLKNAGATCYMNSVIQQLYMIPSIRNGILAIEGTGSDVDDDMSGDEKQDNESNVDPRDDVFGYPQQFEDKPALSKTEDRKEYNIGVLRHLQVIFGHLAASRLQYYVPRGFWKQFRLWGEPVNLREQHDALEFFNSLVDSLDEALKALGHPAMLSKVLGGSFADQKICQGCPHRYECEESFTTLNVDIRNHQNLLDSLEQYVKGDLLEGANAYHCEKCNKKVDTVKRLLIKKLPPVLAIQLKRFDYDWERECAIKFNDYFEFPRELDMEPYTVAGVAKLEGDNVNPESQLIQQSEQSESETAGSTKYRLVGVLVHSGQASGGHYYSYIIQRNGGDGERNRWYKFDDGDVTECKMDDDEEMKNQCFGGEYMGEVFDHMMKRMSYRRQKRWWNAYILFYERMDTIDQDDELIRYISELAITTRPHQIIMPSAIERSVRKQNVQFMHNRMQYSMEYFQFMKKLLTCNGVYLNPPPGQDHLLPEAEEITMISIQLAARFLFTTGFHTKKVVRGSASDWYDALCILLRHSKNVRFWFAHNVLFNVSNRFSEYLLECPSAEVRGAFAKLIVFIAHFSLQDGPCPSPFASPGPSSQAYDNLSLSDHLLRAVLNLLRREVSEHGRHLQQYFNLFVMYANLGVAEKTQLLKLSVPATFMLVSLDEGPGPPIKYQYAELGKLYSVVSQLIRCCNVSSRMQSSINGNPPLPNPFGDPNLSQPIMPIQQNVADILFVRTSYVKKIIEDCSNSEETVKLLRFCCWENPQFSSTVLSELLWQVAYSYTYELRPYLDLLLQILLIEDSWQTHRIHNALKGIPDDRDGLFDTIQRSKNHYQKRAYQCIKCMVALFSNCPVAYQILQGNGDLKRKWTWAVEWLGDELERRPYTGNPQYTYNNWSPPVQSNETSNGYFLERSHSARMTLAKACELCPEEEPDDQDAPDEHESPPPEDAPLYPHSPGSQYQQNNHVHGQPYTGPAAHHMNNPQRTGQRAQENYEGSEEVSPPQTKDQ
T1 sequence (P97821 231-393 limits assumed): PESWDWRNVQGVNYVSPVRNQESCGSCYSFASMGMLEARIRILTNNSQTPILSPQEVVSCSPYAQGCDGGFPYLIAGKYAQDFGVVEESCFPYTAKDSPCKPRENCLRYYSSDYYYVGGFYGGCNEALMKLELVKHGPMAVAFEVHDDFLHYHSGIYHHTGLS
T1 sequence (P97821 25-134 limits assumed): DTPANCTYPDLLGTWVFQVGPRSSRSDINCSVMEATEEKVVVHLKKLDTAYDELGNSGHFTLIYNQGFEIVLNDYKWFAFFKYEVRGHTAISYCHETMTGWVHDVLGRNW
T1 sequence (P97821 394-462 limits assumed): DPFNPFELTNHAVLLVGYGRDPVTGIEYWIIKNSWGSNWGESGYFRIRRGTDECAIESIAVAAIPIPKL

Structure (SMILES): CC(C)C[C@H](NC(=O)[C@H](Cc1ccccc1)NC(=O)c1cnccn1)B(O)O [Bortezomib, reference compound]
GFP signal (G76VUb-GFP in COS1 cells): two-fold increase in GFP signal

Structure (SMILES): N#Cc1cc(F)cc(N=C=S)c1 [TU74]
EC50 (USP9x; [4]): 22 µM

Structure (SMILES): O=[N+]([O-])c1ccc(N=C=S)cc1 [TU79]
EC50 (USP9x; [4]): 11 µM

Structure (SMILES): Fc1cccc(N=C=S)c1 [TU81]
EC50 (USP9x; [4]): 20 µM

Structure (SMILES): CC(C)(C)OC(=O)NCCc1cccc(N=C=S)c1 [TU71]
DUB inhibition in cells (DUBs): inhibits DUBs
level of MCL-1 (MCL-1): decreases the level
apoptosis (BaF3/p210 cells [2]): initiates apoptosis
growth inhibition of BaF3/p210 cells (BaF3/p210 cells [3]): did not show a significant growth inhibition until very high concentrations
inhibition of other DUBs other than USP9x ([1]; at 85 μM): weak inhibition
inhibition of other DUBs ([1]; below 25 μM): little inhibition
EC50 (USP9x; [5]): 6 to 12 µM
EC50 (USP9x; K562 treated with TU71 for 15 min, then HAUb-VS 15 min (FIG. 13), read-out: EC50 for USP9x inhibition): 20 ± 1 µM
EC50 (USP9x; [4]): 9 µM

Structure (SMILES): S=C=Nc1ccccc1 [TU76]
EC50 (USP9x; [5]): > 50 µM
EC50 (USP9x; [4]): 131 µM

Structure (SMILES): Cc1cccc(N=C=S)c1 [TU70]
EC50 (USP9x; [5]): > 50 µM
EC50 (USP9x; [4]): 61 µM

Continued, in another order:

relative potency as cathepsin C inhibitor (cathepsin C): most potent inhibitor
EC50 for cathepsin C inhibition (cathepsin C): low micromolar range
Structure (SMILES): CN(C)c1ccc(N(C(=S)Oc2ccccc2)C(=S)Oc2ccccc2)cc1 [TCM43]

EC50 for cathepsin C inhibition (cathepsin C): low micromolar range
Structure (SMILES): CC(C)(C)OC(=O)NCc1ccc(N(C(=S)Oc2ccc(F)cc2)C(=S)Oc2ccc(F)cc2)cc1 [TCM58]

EC50 for cathepsin C inhibition (cathepsin C): low micromolar range
Structure (SMILES): Cc1ccc(OC(=S)N(C(=S)Oc2ccc(C)cc2)c2ccc(CNC(=O)OC(C)(C)C)cc2)cc1 [TCM42]

EC50 (MCF7): 3 µM
EC50 (B16-F10): 3 µM
EC50 (HeLa): 3 µM
EC50 (USP9x; [5]): 3 µM
Structure (SMILES): CCC[C@H](NC(=O)/C(C#N)=C/c1cccc(Br)n1)c1ccccc1 [WP1130, reference compound]
EC50 (3T3): 3 µM
inhibition of other USPs ([1]; conditions as for USP9x EC50): also inhibited

EC50 for cathepsin C inhibition (cathepsin C): low micromolar range
Structure (SMILES): CC(C)(C)OC(=O)NCc1ccc(N(C(=S)Oc2ccc(Cl)cc2)C(=S)Oc2ccc(Cl)cc2)cc1 [TCM40]

EC50 for cathepsin C inhibition (cathepsin C): low micromolar range
Structure (SMILES): CC(C)(C)OC(=O)NCc1ccc(N(C(=S)Oc2ccccc2)C(=S)Oc2ccccc2)cc1 [TCM41]

EC50 for cathepsin C inhibition (cathepsin C): low micromolar range
Structure (SMILES): CC(C)(C)OC(=O)NCc1cccc(N(C(=S)Oc2ccccc2)C(=S)Oc2ccccc2)c1 [TCM97]
